Columns and labels:
AgTG3 = AgTG3 (Anopheles gambiae, UniProt D2K8K8); experiment: biochemical; details: dose–response curves in the range of 0.5–100 μM, FITC-CAD plate assay; read-out: IC50 for inhibition of AgTG3
Method: Plugin-C (25 μg/well) was incubated in black 96-well Ni-coated plates (Pierce 15342) for 2 h at room temperature or overnight at 4°C. Plates were washed three times with 200 μL of TBS and loaded with 0.5 μg of AgTG3 in 50 μL TBS buffer. DHI inhibitors were added for 1 h to block the enzyme, followed by 50 μL of 2× assay buffer (2× TBS, 20 mM CaCl2, 100 μM FITC-CAD, 2 mM DTT). Wells were incubated for 60 min at room temperature, washed three times with 200 μL of TBS, and filled to a final volume of 100 μL for fluorescence measurements in a microplate reader (Biotek Synergy 2). The z-score was calculated based on the mean and standard deviation of three replicates of inhibitor compared to a DMSO control, zi=x¯DMSO-x¯i/σDMSO+σi .
The targeted chemical library was screened for inhibition of AgTG3 at 100 μM in a FITC-CAD plate assay (Figure 3A), performed in triplicate as previously described. Hit-calling was based on >67% decrease in fluorescence compared to DMSO and z > 5. Seven compounds fulfilled these criteria in the primary assay.
To verify the results of this preliminary assay, dose–response curves in the range of 0.5–100 μM were determined for 27 structurally related compounds within the targeted library (Additional file 3: Table S2 and Additional file 4: Table S3). […] Selected stereoisomers present in the targeted library were compared in equivalent dose–response assays. Inhibition of AgTG3 was specific for the (S)-DHI isomer of 1 (Figure 4A), the (R) isomer (4) displaying no activity (IC50 > 100 μM).

[1] = molecular target: T1, recombinant tobacco etch virus (TEV) protease (Tobacco etch virus, UniProt P04517); experiment: Cysteine protease inhibition assay, TEV protease (GST-gp78 cleavage, SDS-PAGE); format: biochemical; details: 3 at 100 μM, compared to a DMSO control
T1 construct: recombinant tobacco etch virus (TEV) protease
T1 sequence (P04517 2038-2279): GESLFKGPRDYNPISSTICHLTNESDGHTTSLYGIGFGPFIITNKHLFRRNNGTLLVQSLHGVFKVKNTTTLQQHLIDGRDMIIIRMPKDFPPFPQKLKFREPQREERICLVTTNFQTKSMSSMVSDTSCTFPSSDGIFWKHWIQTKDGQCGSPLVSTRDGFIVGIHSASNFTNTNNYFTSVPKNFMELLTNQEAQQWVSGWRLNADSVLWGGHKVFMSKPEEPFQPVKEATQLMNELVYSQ
Method: The activity of recombinant tobacco etch virus (TEV) protease was determined by cleavage of a fusion protein containing a TEV cleavage site between GST and a 17 kDa fragment of human gp78. TEV and GST-gp78 were incubated at 37°C for 10 min at a substrate:enzyme mass ratio of 10:1. The reaction was stopped by adding 3× loading buffer (150 mM Tris–HCl pH 6.8, 300 mM DTT, 6% (w/v) SDS, 0.06% (w/v) bromophenol blue, 30% (v/v) glycerol). Samples were heated at 95°C for 3 min and separated by 4–20% gradient SDS-PAGE.
Transglutaminases and cysteine proteases have a similar catalytic mechanism involving an active site cysteine and formation of a thioacyl intermediate. […] To test this hypothesis, the inhibition of two cysteine proteases, human caspase-1 and recombinant tobacco etch virus (TEV) protease by 3 at 100 μM were tested using a chromogenic and SDS-PAGE assay, respectively (Figure 9). […] Neither human caspase-1 nor TEV are endogenous proteins in A. gambiae, which may well contain other endogenous targets of 1–3, not least the two other transglutaminases in the A. gambiae genome.

Sequence of AgTG3 (D2K8K8 entry or part of it): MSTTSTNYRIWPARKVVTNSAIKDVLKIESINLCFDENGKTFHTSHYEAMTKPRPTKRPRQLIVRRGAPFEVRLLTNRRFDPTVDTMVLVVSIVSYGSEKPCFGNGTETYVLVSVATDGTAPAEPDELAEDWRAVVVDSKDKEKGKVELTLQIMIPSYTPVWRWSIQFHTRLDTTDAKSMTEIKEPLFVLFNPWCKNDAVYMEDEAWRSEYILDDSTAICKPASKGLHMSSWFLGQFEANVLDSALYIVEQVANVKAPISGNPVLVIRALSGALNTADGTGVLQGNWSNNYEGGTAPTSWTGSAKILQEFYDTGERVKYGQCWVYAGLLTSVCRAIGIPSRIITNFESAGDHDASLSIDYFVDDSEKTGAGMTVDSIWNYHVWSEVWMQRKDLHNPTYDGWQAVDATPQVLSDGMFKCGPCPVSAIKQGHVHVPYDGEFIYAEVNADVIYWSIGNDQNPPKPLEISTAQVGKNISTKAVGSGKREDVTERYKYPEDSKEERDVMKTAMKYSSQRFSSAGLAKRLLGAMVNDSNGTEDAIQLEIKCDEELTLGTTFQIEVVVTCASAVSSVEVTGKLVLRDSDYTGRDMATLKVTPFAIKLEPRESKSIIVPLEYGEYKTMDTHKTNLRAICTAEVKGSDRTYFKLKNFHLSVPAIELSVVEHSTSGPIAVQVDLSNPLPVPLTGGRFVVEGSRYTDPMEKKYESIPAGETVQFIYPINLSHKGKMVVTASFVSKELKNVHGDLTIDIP

O=C(N[C@@H](Cc1c[nH]c2ccccc12)C(=O)NC[C@@H]1CC(Br)=NO1)OCc1cnc2ccccc2c1
IC50 (AgTG3): 6.1 µM | Inhibition of TEV protease [1]: no inhibition of the protease
